Structures are written as SMILES. Where only a bound is given, the exact number is not on record here.

Common to all, as to format: biochemical
In assay [1] the target is T1, LasB elastase activity in dialysed supernatant from P. aeruginosa strain PA01 (Pseudomonas aeruginosa, UniProt P14756).
T1 construct: uses as source of enzyme dialysed supernatant from P. aeruginosa; endogenous in cells; host or cells: P. aeruginosa strain PA01 culture supernatant, filtered and dialysed
Briefly: Elastin Congo Red assay to determine % inhibition (Assay 1). The following applies: read-out: Elastin hydrolysis % inhibition @ 50/25 μM inhibitor concentration Assay 1. The method, boiled down: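 Enzyme source: PA01 culture supernatant (19 h growth), filtered and dialysed into 50 mM Tris pH 7.4, 2.5 mM CaCl2. Mixed 1:1 with Elastin Congo Red (20 mg/mL) plus 0.01% Triton X-100 and compound (routinely 50 and 25 μM), 24 h at 37 °C shaking. Dye release at OD520 gives % inhibition versus DMSO.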

Assay [2] addresses T2, purified LasB protein from P. aeruginosa (Pseudomonas aeruginosa, UniProt P14756).
T2 construct: purchased Merck or Charles River Laboratories
Nature of the assay: Fluorometric assay to determine Ki (Assay 1). The conditions noted are these: Ki (μM) Assay 1, purified LasB, substrate Abz-Ala-Gly-Leu-Ala-p-Nitro-Benzyl-Amide 250 μM, Ki calculated from IC50; inhibitor 0.006 to 200 μM. The method, boiled down:
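Purified LasB (10 to 140 ng/ml) with 250 μM Abz-Ala-Gly-Leu-Ala-p-nitrobenzylamide in 50 mM Tris-HCl pH 7.4, 2.5 mM CaCl2, 0.01% Triton X100; hydrolysis read by fluorescence (Ex 340/Em 415 nm) over 30 min at 37° C. Inhibitor 2-fold series, 0.006–200 μM (Assay 1) or 0.0016–200 μM (Assay 2); IC50 converted to Ki via Ki=IC50/(1+[S]/Km), Km=214 μM.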

The target in assay [3] is T2, purified LasB protein from P. aeruginosa. Briefly: Fluorometric assay to determine Ki (Assay 2). On the procedure: (§1) Experiments were therefore conducted (1) to measure the potency of inhibition of compounds of the invention against purified Pseudomonas aeruginosa LasB enzyme and also experiments were conducted (2) to measure the ability of compounds of the invention to inhibit LasB-catalysed elastin degradation. The first assay uses a commercial fluorescent synthetic peptide and purified LasB enzyme. The LasB hydrolysis kinetics are measured allowing the determination of the IC50 and Ki of the inhibitors; the second is a more physiological assay using dialysed Pseudomonas aeruginosa supernatant as source of enzyme, plus its natural substrate Elastin. It is an “end point assay” that determines the percentage of LasB inhibition by each compound for one particular time point and inhibitor concentration. Technical details are described below:
This assay uses commercially available substrate (Abz-Ala-Gly-Leu-Ala-p-Nitro-Benzyl-Amide (Ex: 340 nm, Em: 415 nm) from Peptide International) and purified LasB protein from P. aeruginosa (provided by Merck or Charles River Laboratories). It is performed to determine LasB elastase activity and assess compound inhibition in 96-well plate format. Some compounds of Formula (I) were assessed using the method of Assay 1 (described below). Other compounds of Formula (I) were assessed using the alternative but equivalent method of Assay 2 (described below).
Method: 10 to 140 ng/ml purified LasB is incubated with 250 μM Abz-Ala-Gly-Leu-Ala-p-Nitro-Benzyl-Amide in 50 mM Tris-HCl pH 7.4, 2.5 mM CaCl2), 0.01% of Triton X100 at 37° C. LasB activity (corresponding to fluorescence emission induced by substrate hydrolysis) is measured over 30 min at 37° C. with a fluorescence plate reader such as the Perkin Elmer Envision or similar. Different range of inhibitor concentrations are routinely assessed depending of inhibitor potency from 0.006 to 200 μM (Assay 1; 2-fold dilutions series) or from 0.0016 to 200 μM (Assay 2; 2-fold dilutions series) in order to determine IC50.
The equation used to calculate the Ki from IC50 is: Ki=IC50/(1+([S]/Km)) where [S]=250 μM and Km=214 μM.

Assay [4] deals with T1, LasB elastase activity in dialysed supernatant from P. aeruginosa strain PA01. Nature of the assay: Elastin Congo Red assay to determine % inhibition (Assay 2). The following applies: read-out: Elastin hydrolysis % inhibition @ 50/25 μM inhibitor concentration Assay 2. The protocol: as §1
The Elastin assay uses as source of enzyme dialysed supernatant from P. aeruginosa and the elastin congo red as substrate. The natural LasB substrate, elastin, is complexed with the congo red dye (Elastin Congo Red, ECR). The elastolysis activity from the culture supernatant will degrade elastin and release the congo red dye into the supernatant. This red dye release can be measured with a spectrophotometer. Some compounds of Formula (I) were assessed using the method of Assay 1 (described below). Other compounds of Formula (I) were assessed using the alternative but equivalent method of Assay 2 (described below).
Method (Assay 2): To determine LasB elastase activity and assess compound inhibition, an overnight culture of P. aeruginosa strain PA01 is diluted in LB medium. After reaching an OD600 nm of 0.6, this culture is diluted and incubated for additional 18-24 h in a shaking incubator. Culture supernatants are recovered by centrifugation and filtrated through a […] filter. These supernatants are dialysed (filtration molecules <20 kDa) into a 50 mM Tris-HCl pH 7.4, 2.5 mM CaCl2 solution at 4° C. under agitation for 24 h. Supernatant dialysed is then mixed volume/volume with the ECR suspension (20 mg/mL of ECR in 100 mM Tris-HCl pH 7.4 buffer supplemented with 1 mM CaCl2) supplemented with TritonX 100 (final concentration of 0.01%) in presence of DMSO (positive control) and/or different concentrations of compound (routinely […]). As a negative control, the dialysed supernatant is replaced by Tris-HCl solution (50 mM Tris-HCl pH 7.4, 2.5 mM CaCl2). The mixed reaction is then incubated overnight in a 37° C. shaking incubator. The reaction supernatant is recovered by centrifugation and the release of congo-red is measured by its absorbance at 495 nm (OD495 nm).
Percentage inhibition is determined using the following equation: ((OD495 nm value of positive control−OD495 nm value of negative control)−(OD495 nm value of treated supernatant−OD495 nm value of negative control))/(OD495 nm value of positive control−OD495 nm value of negative control)×100.

T2 sequence (P14756 198-498): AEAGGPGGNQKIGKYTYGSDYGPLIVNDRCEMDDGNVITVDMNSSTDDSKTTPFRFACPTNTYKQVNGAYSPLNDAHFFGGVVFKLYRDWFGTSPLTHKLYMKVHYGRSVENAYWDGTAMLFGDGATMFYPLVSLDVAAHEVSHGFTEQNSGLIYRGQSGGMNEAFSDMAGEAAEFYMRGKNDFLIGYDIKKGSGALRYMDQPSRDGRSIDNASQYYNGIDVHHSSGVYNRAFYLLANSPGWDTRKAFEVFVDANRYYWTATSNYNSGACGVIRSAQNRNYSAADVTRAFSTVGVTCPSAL
T1 sequence (P14756 198-498): as above

As a reminder, the Ki is the equilibrium dissociation constant of an inhibitor or competing ligand from its target. For the compound `N[C@H]1CCN(c2ccc3nc(CNC(=O)C4(CC(=O)O)Cc5ccccc5C4)sc3c2)C1` [Example 101, 2-[2-[[6-[(3 S)-3-aminopyrrolidin-1-yl]-1,3-benzothiazol-2-yl]methylcarbamoyl]indan-2-yl]acetic acid], in assay [1], the inhibition at 50 µM was above 60%. Moreover, the Ki in assay [2] is 0.3 to 2 µM.

For `N[C@@H]1CCN(c2ccc3nc(CNC(=O)C4(CC(=O)O)Cc5ccccc5C4)sc3c2)C1` [Example 102, 2-[2-[[6-[(3R)-3-aminopyrrolidin-1-yl]-1,3-benzothiazol-2-yl]methylcarbamoyl]indan-2-yl]acetic acid], the inhibition at 50 µM in assay [1] was above 60%. In addition, the Ki in assay [2] is below 0.3 µM.

Consider `N[C@H]1CCN(c2ccc3sc(CNC(=O)C4(CC(=O)O)Cc5ccccc5C4)nc3c2)C1` [Example 103, 2-[2-[[5-[(3 S)-3-aminopyrrolidin-1-yl]-1,3-benzothiazol-2-yl]methylcarbamoyl]indan-2-yl]acetic acid], for which the inhibition at 50 µM in assay [1] is above 60%. In assay [2], the Ki was 0.3 to 2 µM.

Turning to `N[C@@H]1CCN(c2ccc3sc(CNC(=O)C4(CC(=O)O)Cc5ccccc5C4)nc3c2)C1` [Example 104, 2-[2-[[5-[(3R)-3-aminopyrrolidin-1-yl]-1,3-benzothiazol-2-yl]methylcarbamoyl]indan-2-yl]acetic acid], the inhibition at 50 µM in assay [1] was above 60%. Moreover, the Ki in assay [2] is 0.3 to 2 µM.

Regarding `CN(C)CCNc1ccc2nc(CNC(=O)C3(CC(=O)O)Cc4ccccc4C3)sc2c1` [Example 105, 2-[2-[[6-[2-(dimethylamino)ethylamino]-1,3-benzothiazol-2-yl]methylcarbamoyl]indan-2-yl]acetic acid], the inhibition at 50 µM in assay [1] fell in the range of 30 to 60%. In addition, the Ki in assay [2] was 0.3 to 2 µM.

`CN1CCN(c2ccc3sc(CNC(=O)C4(CC(=O)O)Cc5ccccc5C4)nc3c2)CC1` [Example 106, 2-[2-[[5-(4-methylpiperazin-1-yl)-1,3-benzothiazol-2-yl]methylcarbamoyl]indan-2-yl]acetic acid]: the inhibition at 50 µM in assay [1] is above 60%. Further, the Ki in assay [2] is below 0.3 µM.

Regarding `O=C(O)CC1(C(=O)NCc2nc3ccc(O)cc3s2)Cc2ccccc2C1` [Example 107, 2-[2-[(6-hydroxy-1,3-benzothiazol-2-yl)methylcarbamoyl]indan-2-yl]acetic acid], in assay [3], the Ki was below 300 nM. Besides, the inhibition at 50 µM in assay [4] is above 60%.

Compound `CCOc1ccc2nc(CNC(=O)C3(CC(=O)O)Cc4ccccc4C3)sc2c1` [Example 108, 2-[2-[(6-ethoxy-1,3-benzothiazol-2-yl)methylcarbamoyl]indan-2-yl]acetic acid] displayed a Ki in assay [3] below 300 nM. For the same compound, the inhibition at 50 µM in assay [4] is above 60%.

For the compound `CN(C)CCOc1ccc2nc(CNC(=O)C3(CC(=O)O)Cc4ccccc4C3)sc2c1` [Example 110, 2-[2-[[6-[2-(dimethylamino)ethoxy]-1,3-benzothiazol-2-yl]methylcarbamoyl]indan-2-yl]acetic acid], the inhibition at 50 µM in assay [1] fell in the range of 30 to 60%. Also, the Ki in assay [2] was 0.3 to 2 µM.

As for `C[N+](C)(C)CCOc1ccc2nc(CNC(=O)C3(CC(=O)[O-])Cc4ccccc4C3)sc2c1` [Example 111, 2-[2-[[6-[2-(trimethylammonio)ethoxy]-1,3-benzothiazol-2-yl]methylcarbamoyl]indan-2-yl]acetate], the inhibition at 50 µM in assay [1] is 30 to 60%. Also, the Ki in assay [2] is 0.3 to 2 µM.

For `CN(C)CCOc1ccc2sc(CNC(=O)C3(CC(=O)O)Cc4ccccc4C3)nc2c1` [Example 112, 2-[2-[[5-[2-(dimethylamino)ethoxy]-1,3-benzothiazol-2-yl]methylcarbamoyl]indan-2-yl]acetic acid], the inhibition at 50 µM in assay [1] was above 60%. In addition, in assay [2], the Ki was below 0.3 µM.

As to `C[N+](C)(C)CCOc1ccc2sc(CNC(=O)C3(CC(=O)[O-])Cc4ccccc4C3)nc2c1` [Example 113, 2-[2-[[5-[2-(trimethylammonio)ethoxy]-1,3-benzothiazol-2-yl]methylcarbamoyl]indan-2-yl]acetate], the inhibition at 50 µM in assay [1] is above 60%. Besides, the Ki in assay [2] is 0.3 to 2 µM.

As for `C[N+]1(C)CCC(OC(=O)[C@H](Cc2c[nH]c3ccccc23)NC(=O)C2(CC(=O)O)Cc3ccccc3C2)CC1` [Example 116, (S)-2-(2-((1-((1,1-dimethylpiperidin-1-ium-4-yl)oxy)-3-(1H-indol-3-yl)-1-oxopropan-2-yl)carbamoyl)-2,3-dihydro-1H-inden-2-yl)acetate], in assay [1], the inhibition at 50 µM is above 60%. Also, the Ki in assay [2] was 0.3 to 2 µM.

For `Cc1nnc([C@H](Cc2c[nH]c3ccccc23)NC(=O)C2(CC(=O)O)Cc3ccccc3C2)o1` [Example 117, (S)-2-(2-((2-(1H-indol-3-yl)-1-(5-methyl-1,3,4-oxadiazol-2-yl)ethyl)carbamoyl)-2,3-dihydro-1H-inden-2-yl)acetic acid], the inhibition at 50 µM in assay [1] is above 60%. The Ki in assay [2] is 0.3 to 2 µM.

For `NCc1nnc([C@H](Cc2c[nH]c3ccccc23)NC(=O)C2(CC(=O)O)Cc3ccccc3C2)o1` [Example 118, (S)-2-(2-((1-(5-(aminomethyl)-1,3,4-oxadiazol-2-yl)-2-(1H-indol-3-yl)ethyl)carbamoyl)-2,3-dihydro-1H-inden-2-yl)acetic acid], the inhibition at 50 µM in assay [1] was above 60%. Besides, in assay [2], the Ki was below 0.3 µM.

Turning to `O=C(O)CC1(C(=O)NCc2nc3cnccc3s2)Cc2ccccc2C1` [Example 127, 2-[2-(thiazolo[4,5-c]pyridin-2-ylmethylcarbamoyl)indan-2-yl]acetic acid], the inhibition at 50 µM in assay [1] was above 60%. Also, the Ki in assay [2] was 0.3 to 2 µM.

In the case of `CN1CCc2nc(CNC(=O)C3(CC(=O)O)Cc4ccccc4C3)sc2C1` [Example 129, 2-[2-[(5-methyl-6,7-dihydro-4H-thiazolo[5,4-c]pyridin-2-yl)methylcarbamoyl]indan-2-yl]acetic acid], the inhibition at 50 µM in assay [1] was 30 to 60%. For the same compound, in assay [2], the Ki was 0.3 to 2 µM.

Take `O=C(O)CC1(C(=O)NCc2nc3cc(O)ccc3s2)Cc2ccccc2C1` [Example 130, 2-[2-[(5-hydroxy-1,3-benzothiazol-2-yl)methylcarbamoyl]indan-2-yl]acetic acid]: the inhibition at 50 µM in assay [1] is above 60%. Moreover, in assay [2], the Ki is below 0.3 µM.
